Test system: human fibroblasts
Assay: TMT proteomics of fibroblasts with and without UV exposure, differential expression and pathway analysis
Type: cell-based
Details: result in words
Method: Human fibroblasts were obtained from Cell Applications Inc (Cat. # 106-05a) and were maintained in Dulbecco’s Modified Eagle medium (DMEM, Corning, Cat. #10-013-CV) with 10% fetal bovine serum (Gibco, Cat. #10082147) and 1% penicillin/streptomycin (Gibco, Cat. # 15070-063) in a humidified incubator with 5% CO2 at 37 °C. For ultraviolet radiation, fibroblasts were seeded in a 96-well plate at a density of 25,000 cells/well and maintained at 37 °C for 24 h. Cells were washed once with Hanks’ balanced salt solution (HBSS, Gibco, Cat. #14025-092), then treated for 1 h with different concentrations of compounds prepared in HBSS. Vitamin C (Sigma, Cat. # A5960) served as a positive control. Treated cells were exposed to ultraviolet light (UVP cross-linker, CL1000, 254 nm UV, 8 watts) at a total dose of 20 mJ/cm^2. Following irradiation, the HBSS was replaced with culture medium containing the same concentration of compounds as before irradiation, and cells were again maintained at 37 °C. Cell viability was measured at 24 h post-irradiation using CellTiter-Glo according to the manufacturer’s instructions (Promega, Cat.# G7571). Results were expressed as relative cell viability (%) with respect to control cells (cells without ultraviolet irradiation or compound treatment).
Frozen cell pellets were dissolved for 15 min in 6M Guanidinium Chloride at room temperature to lyse cells. Then, each solution was run on a 10 kDa filter (Pall, TX) and washed with 50 μL of TEAB buffer at 3000 rpm. FASP Digestion ([56]): A stock solution of Trypsin Platinum, Mass Spec Grade (Promega) at 100 μg/mL in 50 mM TEAB, and a specific volume of stock trypsin was added to each sample vial for each set of […] using a 1:50 ratio (Trypsin:Protein). Samples were incubated for 2 h at 50 °C and shaken/mixed at 350 rpm on an Eppendorf ThermoMixer C. TMT Labeling: Samples, now peptides, were labeled using 4 μL of TMTpro Mass Tag Labels (ThermoScientific). After labeling, samples were then shaken/mixed for 45 min to ensure labels were covalently bonded to peptides. The labeling reaction was quenched for 10 min using 1 μL of 5% hydroxyalamine. After quenching, samples were pooled into one 2 mL Eppendorf tube and then dried down using an Eppendorf Vacufuge Plus. Desalting Samples: Dried samples were resuspended in 300 μL of 0.1% TFA in ultrapure HPLC-grade water and vortexed to ensure full solubility. Samples were then desalted using Pierce^TM Peptide Desalting Spin Columns (ThermoScientific). Final eluates (desalted samples) contained 600 μL of 50% HPLC-grade Acetonitrile and 50% ultrapure HPLC-grade water. Desalted samples were then transferred to HPLC vials and were again dried down. […]

**Q.** Which results are given for `O=C1O[C@H]([C@@H](O)CO)C(O)=C1O` [Vitamin C, reference compound]?
**A.** proteins/pathways up- and downregulated, exposed to UV radiation (UV-irradiated cells): primarily upregulated proteins associated with cell cycle/DNA repair-related pathways; proteins/pathways up- and downregulated, without UV treatment (control conditions without UV): opposite effects

From article PMC12439166, “Dietary flavonoids form supramolecular assemblies, alter biochemistry, and enhance cell resilience” (Frontiers in Nutrition, 2025)
